Columns and labels:
[1] = system: IL-6; experiment: Anti-inflammatory cell assay: IL-6 ELISA in LPS-stimulated RAW 264.7 cells; format: cell-based, Mouse; conditions: 100 ppm, 200 ng/mL LPS, RAW 264.7, 48 h, vs LPS alone
Procedure: (§1) Fetal bovine serum, DMEM culture medium, penicillin, streptomycin, an IL-6 ELISA kit and a TNF-α ELISA kit.
(§2) Mouse monocyte macrophages (RAW 264.7 cells).
(§3) 100 ppm of the reference peptide, 100 ppm of the peptide (5), 100 ppm of the peptide (11), and 100 ppm of the peptide (17); the peptides were dissolved with a PBS solution, respectively.
(§4) The frozen RAW 264.7 cells were cultured and passaged at a ratio of 1:2 to about the 5th generation, and the cells in better growth were selected as experiment subjects.
(§5) A cell suspension was diluted properly and inoculated on a 6-well plate at 100,000 cells/well. When the cells were about 80% confluent, an LPS-stimulated inflammation model was established. A blank control group (control), a LPS group, a dexamethasone group (DXM), and polypeptide groups were set. The blank control group was supplemented with the culture medium to 1000 μL; in the LPS group, 200 ng/mL LPS was added, and supplemented with the culture medium to 1000 μL; in the dexamethasone group, 200 ng/mL LPS and 50 ng/ml dexamethasone were added, and supplemented with the culture medium to 1000 μL; in the polypeptide groups, 200 ng/mL LPS and a polypeptide were added, and supplemented with culture medium to 1000 μL (the final test concentration of the polypeptide was 100 ppm). The above groups were further incubated in a 5% CO2 incubator at 37° C. for 48 h. The solutions were centrifuged at 3000 rpm for 15 min, in each of which a cell supernatant was collected to obtain a sample liquid. Operations were performed according to the instructions of the IL-6 and TNF-α ELISA kits.
(§6) Inflammatory factors such as TNF-α and IL-6 can cause the body's immune overresponse, leading to skin ulcers, redness and other problems. Therefore, inhibiting inflammatory factors such as TNF-α and IL-6 secreted by monocytes in the skin can achieve anti-inflammatory and repairing effects. An inflammation model was established by stimulating RAW 264.7 cells with 200 ng/mL LPS to investigate the anti-inflammatory and repairing effects of the peptides of the present invention.

[2] = system: HaCaT cells; experiment: Cell viability assay (MTT) on HaCaT cells; format: cell-based, Human; conditions: 72 h; for toxicity to HaCaT cells: 100 ppm, compared with the control group
Text: Phosphate-buffered saline (PBS) (Gibco), thiazolyl blue (MTT) (Sigma), dimethyl sulfoxide (DMSO) (Sigma), a high glucose culture medium (DMEM) (Gibco), and fetal bovine serum (Gibco).
Human keratinocytes (HaCaT) were purchased from the Kunming Cell Bank of China Center for Type Culture Collection under the Chinese Academy of Sciences.
The peptide Ac-Phe-Phe-Trp-Phe-His-Val-NH2 (hereinafter referred to as the reference peptide) at a test concentration of 1 ppm, 10 ppm, 50 ppm, and 100 ppm respectively; • the peptide (5) at a test concentration of 1 ppm, 10 ppm, 50 ppm, and 100 ppm, respectively; • the peptide (11) at a test concentration of 1 ppm, 10 ppm, 50 ppm, and 100 ppm, respectively; • the peptide (17) at a test concentration of 1 ppm, 10 ppm, 50 ppm, and 100 ppm, respectively. Control group: • PBS blank control.
The frozen HaCaT cells were cultured and passaged at a ratio of 1:2 to about the 5th generation, and the cells in better growth were selected as experiment subjects.
The cells were inoculated in a 96-well plate at 2000 cells/well. After the cells adhered to the wall, samples of the drug groups and the control group were added according to the multiple dilution method, supplemented with a culture medium to 200 μL, and incubated in a 5% CO2 incubator at 37° C. for 72 h.
Then 22 μL 5 mg/ml MTT was added to each well and the incubation was continued in the 5% CO2 incubator at 37° C. for 4 h. The original solution was removed and 150 μL/well DMSO was added. After 5 min, the microplate reader was used to read the reference OD values at 490 nm and 630 nm wavelengths.
The MTT assay is a method of detecting cell survival and growth. The control group is taken as a reference value. Four dosage concentrations were set from high to low for each sample, and cell viability assays were carried out on HaCaT cells. The measured OD values are directly proportional to cell viability.

[3] = system: TNF-α; experiment: Anti-inflammatory cell assay: TNF-α ELISA in LPS-stimulated RAW 264.7 cells; format: cell-based, Mouse; conditions: 200 ng/mL LPS; for effect on TNF-α expression compared with the positive drug dexamethasone: 100 ppm peptide vs 50 ng/ml dexamethasone, RAW 264.7; for TNF-α expression: 100 ppm, RAW 264.7, 48 h, vs LPS alone
Procedure: as §1, §2, §3, §4, §5, §6

Substance	expression of IL-6 [1]	toxicity to HaCaT cells [2]	proliferation effects on cells ([2]; HaCaT, 50 ppm)	effect on TNF-α expression compared with the positive drug dexamethasone [3]	TNF-α expression [3]
Ac-FFWFHV-NH2 [reference peptide, Ac-Phe-Phe-Trp-Phe-His-Val-NH2, reference compound]	significantly down-regulated	no toxicity	significant proliferation effects	equivalent to that of the positive drug dexamethasone, or having even more excellent effects than dexamethasone	significantly down-regulated
Ac-FFWFKV-NH2 [peptide (5), Ac-Phe-Phe-Trp-Phe-Lys-Val-NH2]		no toxicity			
Ac-FFWFHL-NH2 [peptide (11), Ac-Phe-Phe-Trp-Phe-His-Leu-NH2]	significantly down-regulated	no toxicity		equivalent to that of the positive drug dexamethasone, or having even more excellent effects than dexamethasone	significantly down-regulated
Ac-FFWFHG-NH2 [peptide (17), Ac-Phe-Phe-Trp-Phe-His-Gly-NH2]	significantly down-regulated	no toxicity		equivalent to that of the positive drug dexamethasone, or having even more excellent effects than dexamethasone	significantly down-regulated

Reference: patent publication US20240342071A1, “HEXAPEPTIDE,COSMETIC COMPOSITION OR PHARMACEUTICAL COMPOSITION CONTAINING SAME, AND USE OF HEXAPEPTIDE” (SHENZHEN WINKEY TECHNOLOGY CO., LTD, priority 2021, published 2024)
